Assay results: patent US10251408B2, “Catechin function enhancement method” (KYUSHU UNIVERSITY, NATIONAL UNIVERSITY CORPORATION, priority 2014, dated 2019)

Assays:
[1] = system: low density lipoprotein receptor (LDLR); assay: Liver LDLR mRNA by real-time PCR in HF/HS diet-fed mice; assay type: in vivo, mouse; details: HF/HS diet-fed C57BL/6J mice; Yabukita 0.2% and/or eriodictyol 0.45 g/kg diet; 8 weeks; FIG. 6
Text: (§1) Male C57BL/6J mice at 12 weeks of age were preliminarily kept for 1 week and then divided into 5 groups such that the average body weight was equal in all groups, i.e., a control (AIN-93G-based diet) group, a HF/HS (high-fat high-sucrose diet) group, a Yabukita (0.2%) (HF/HS+Yabukita) group, an eriodictyol (HF/HS+eriodictyol) group, and a Yabukita+eriodictyol (HF/HS+Yabukita+eriodictyol) group. A feed supplemented with Yabukita (0.2%) and eriodictyol (0.45 g/kg diet) was given to the mice. The feed was given in an amount of 4 g/day and the mice were kept for 8 weeks under ad libitum drinking conditions. After being fasted for 16 hours, the mice were sacrificed by abdominal aortic puncture under isoflurane anesthesia. […] Yabukita and eriodictyol were examined for their effect on cholesterol metabolism-related gene expression in the liver of high-fat high-sucrose diet-fed obese model mice. C57BL/6J mice were preliminarily kept for 1 week and then divided into the respective groups such that the average body weight was equal in all groups. Each feed was given in an amount of 4 g/day and the mice were kept for 8 weeks under ad libitum drinking conditions. After being fasted for 16 hours, the mice were sacrificed by abdominal aortic puncture under isoflurane anesthesia.

[2] = system: high-fat high-sucrose diet-fed obese model mice; assay: High-fat high-sucrose diet-fed mice: body weight, serum total cholesterol, LDL; assay type: in vivo, mouse; details: C57BL/6J mice, Yabukita 0.2% and/or eriodictyol 0.45 g/kg diet, 8 weeks, FIG. 5
Text: (§2) Male C57BL/6J mice at 12 weeks of age were preliminarily kept for 1 week and then divided into 5 groups such that the average body weight was equal in all groups, i.e., a control (AIN-93G-based diet) group, a HF/HS (high-fat high-sucrose diet) group, a Yabukita (0.2%) (HF/HS+Yabukita) group, an eriodictyol (HF/HS+eriodictyol) group, and a Yabukita+eriodictyol (HF/HS+Yabukita+eriodictyol) group. A feed supplemented with Yabukita (0.2%) and eriodictyol (0.45 g/kg diet) was given to the mice. The feed was given in an amount of 4 g/day and the mice were kept for 8 weeks under ad libitum drinking conditions. After being fasted for 16 hours, the mice were sacrificed by abdominal aortic puncture under isoflurane anesthesia. The collected blood samples were allowed to stand at 37° C. for 2 hours to cause coagulation and then centrifuged at 4° C. at 2000×g for 15 minutes to collect serum fractions. The values of serum total cholesterol and LDL were measured. […] Yabukita and eriodictyol were examined for their effect on obesity in high-fat high-sucrose diet-fed obese model mice. Male C57BL/6J mice at 12 weeks of age were preliminarily kept for 1 week and then divided into the respective groups such that the average body weight was equal in all groups. Each feed was given in an amount of 4 g/day and the mice were kept for 8 weeks under ad libitum drinking conditions. After being measured for their body weight, the mice were fasted for 16 hours and then sacrificed by abdominal aortic puncture under isoflurane anesthesia. Blood samples collected by puncture were allowed to stand at 37° C. for 2 hours to cause coagulation and then centrifuged at 4° C. at 2000×g for 15 minutes to collect serum fractions. The values of serum total cholesterol and LDL were measured.

MCP-1 = assay: Fat tissue MCP-1 mRNA by real-time PCR in HF/HS diet-fed mice; assay type: in vivo, mouse; details: C57BL/6J mice; Yabukita 0.2% and/or eriodictyol 0.45 g/kg diet; 8 weeks; FIG. 5
Text: as §2, with “Male C57BL/6J mice at 12 weeks of age were preliminarily kept for 1 week and then divided into the respective groups such that the average body weight was equal in all groups. Each feed was given in an amount of 4 g/day and the mice were kept for 8 weeks under ad libitum drinking conditions.” left out, “Blood samples collected by puncture were allowed to stand at 37° C. for 2 hours to cause coagulation and then centrifuged at 4° C. at 2000×g for 15 minutes to collect serum fractions.” left out

[3] = system: Human multiple myeloma cell line U266; assay: Cancer cell death induction, viable cells by trypan blue assay (96-well plate, FIG. 9); assay type: cell-based; details: 96 hours, in combination with EGCG, EGCG 3″Me or green tea extract
Experimental: Human multiple myeloma cell line U266 was subcultured and maintained in RPMI 1640 medium supplemented with 10% FCS under conditions of 37° C. and water vapor-saturated 5% CO2. The cells were maintained in the logarithmic growth phase. The RPMI 1640 medium used for culture was prepared as follows: per liter of ultrapure water, RPMI 1640 medium (10.4 g), HEPES (2.38 g), injectable penicillin G potassium (100,000 units), streptomycin sulfate injectable (100 mg) and NaHCO3 (2.0 g) were suspended and then filter-sterilized.
The lemon peel extract used in the experiment was prepared as follows. Peels (100 g) were collected with a grater from 6 lemons and 100% EtOH (100 mL) was added thereto, followed by mashing with a mortar. The mashed mixture was further strained through gauze to remove fibers and then filtered by gravity using a #1 paper filter and a funnel to remove precipitates, followed by centrifugation at 12000×g to collect the supernatant. The resulting ethanol extract of lemon was evaporated with an evaporator to volatilize the solvent, thereby obtaining an ethanol-extracted lemon fraction. This ethanol-extracted lemon fraction was dissolved again in DMSO to give a lemon extract. […] After culture, viable cells were counted by trypan blue assay.
To evaluate the effect of combined use of EGCG or a structural analog thereof or an EGCG-containing naturally occurring product and eriodictyol or a structural analog thereof or an eriodictyol-containing naturally occurring product, human multiple myeloma cell line U266 was adjusted to 5×10^4 cells/mL and seeded in a 96-well plate, and then cultured for 96 hours in the presence of EGCG and eriodictyol added at a final concentration of 5 μM each. After culture for 96 hours, viable cells were counted by trypan blue assay.

[4] = system: 3-hydroxy-3-methyl-glutaryl-CoA reductase (HMGCR); assay: Liver HMGCR mRNA by real-time PCR in HF/HS diet-fed mice; assay type: in vivo, mouse; details: HF/HS diet-fed C57BL/6J mice; Yabukita 0.2% and/or eriodictyol 0.45 g/kg diet; 8 weeks; FIG. 6
Text: as §1

caspase-3 = assay: Caspase-3 activation in MPC-11 tumor sections (immunohistological staining); assay type: in vivo, mouse; details: MPC-11-implanted balb/c mice; EGCG 15 mg/kg i.p. and eriodictyol 15 mg/kg i.p.; after 6 hours; FIG. 13
Experimental: After female balb/c mice at 5 weeks of age were preliminarily kept for 2 weeks, a cell suspension of mouse multiple myeloma cell line MPC-11 suspended at 5×10^6 cells/mL in RPMI medium was implanted by subcutaneous injection in a volume of 200 μL into the right dorsal region of each mouse. At 11 days after implantation, the mice were administered […] with EGCG (15 mg/kg i.p.) and eriodictyol (15 mg/kg i.p.) and then sacrificed after 6 hours. Tumors were excised and tissue sections were prepared therefrom, followed by immunohistological staining to determine the number of cells where caspase-3 was activated. To examine the effect of eriodictyol on EGCG-induced activation of caspase-3 indicative of 67LR-dependent cancer cell death induction mechanism activity, female balb/c mice at 5 weeks of age were implanted with mouse multiple myeloma cell line MPC-11 by subcutaneous injection. At 11 days after implantation, the mice were administered with EGCG (15 mg/kg i.p.) and eriodictyol (15 mg/kg i.p.) and then sacrificed after 6 hours. Tissue sections were prepared from the excised tumors and evaluated for the activation state of caspase-3.

O=C1C[C@@H](c2ccc(O)c(O)c2)Oc2cc(O)cc(O)c21 [eriodictyol]
mRNA expression level of LDLR in the liver [1]: no effect
high-fat high-sucrose diet-induced increase in body weight [2]: no effect
high-fat high-sucrose diet-induced increase in serum cholesterol value [2]: no effect
high-fat high-sucrose diet-induced increase in LDL value ([2]; serum): no effect
high-fat high-sucrose diet-induced increase in fat tissue MCP-1 expression level (mRNA) (MCP-1): no effect
enhancement of the anticancer effect (viable cells) of EGCG, EGCG 3″Me or a green tea extract [3]: remarkably enhance the anticancer effect
mRNA expression level of HMGCR in the liver [4]: no effect
effect on EGCG-induced caspase-3 activation in tumors (caspase-3): remarkably enhance the ability of EGCG to induce caspase-3 activation
